According to PubChem BioAssay AID1963422 (Molecular Pharmacology Branch, DTP, NCI, 2024):

Tested on: 463943-066-T-J2-PDC complex spheroid growth
Experiment: Anticancer human tumor 463943-066-T-J2-PDC patient-derived colon adenocarcinoma cell line growth inhibition [Asc]
Settings: for IC50: curve of first compound; for viability, T/C: stronger effect = lower value
Method in brief: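 Stromal components (HUVEC and hMSC) are co-assembled with the cancer cells into multicellular spheroids. Drugs are then added singly or paired, at concentrations falling by half-log increments from a clinically achievable maximum, capped at 10 microM without known Cmax.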
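Also: compound exposure lasted 7 days.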
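For viability, T/C in this document: 100% = DMSO vehicle control wells.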

## C=C(F)C(=O)N1CCN(c2nc(OCC3CCCN3C)nc3c2CCN(c2cccc4cccc(Cl)c24)C3)CC1CC#N (centres undefined) + Cc1c(S(C)(=O)=O)c(-c2cc(F)cc(N3CCN(c4ccc(NS(=O)(=O)c5ccc(NC(CCN6CCC(C(=O)OCCCP(=O)(O)O)CC6)CSc6ccccc6)c(S(=O)(=O)C(F)(F)F)c5)cc4)CC3)c2)c(-c2ccc(Cl)cc2)n1C(C)C
Second compound 0.0316 µM
  IC50: 5.64 µM
Second compound 0.1 µM
  IC50: 4.89 µM
Second compound 0.316 µM
  IC50: 3.88 µM
Second compound 1 µM
  IC50: 2.3 µM
Second compound 3.16 µM
  IC50: 1.17 µM
Second compound 10 µM
  IC50: < 0.0316 µM
Second compound 0.0316 µM, first compound 0.0316 µM
  viability, T/C: 92.4%
Second compound 0.0316 µM, first compound 0.1 µM
  viability, T/C: 95.5%
Second compound 0.0316 µM, first compound 0.316 µM
  viability, T/C: 95.9%
Second compound 0.0316 µM, first compound 1 µM
  viability, T/C: 106%
Second compound 0.0316 µM, first compound 3.16 µM
  viability, T/C: 93.1%
Second compound 0.0316 µM, first compound 10 µM
  viability, T/C: 7.35%
Second compound 0.1 µM, first compound 0.0316 µM
  viability, T/C: 98.2%
Second compound 0.1 µM, first compound 0.1 µM
  viability, T/C: 93.5%
Second compound 0.1 µM, first compound 0.316 µM
  viability, T/C: 90.8%
Second compound 0.1 µM, first compound 1 µM
  viability, T/C: 98.4%
Second compound 0.1 µM, first compound 3.16 µM
  viability, T/C: 79.5%
Second compound 0.1 µM, first compound 10 µM
  viability, T/C: 1.47%
Second compound 0.316 µM, first compound 0.0316 µM
  viability, T/C: 92%
Second compound 0.316 µM, first compound 0.1 µM
  viability, T/C: 85.7%
Second compound 0.316 µM, first compound 0.316 µM
  viability, T/C: 87%
Second compound 0.316 µM, first compound 1 µM
  viability, T/C: 85.7%
Second compound 0.316 µM, first compound 3.16 µM
  viability, T/C: 60.8%
Second compound 0.316 µM, first compound 10 µM
  viability, T/C: 0.26%
Second compound 1 µM, first compound 0.0316 µM
  viability, T/C: 80.3%
Second compound 1 µM, first compound 0.1 µM
  viability, T/C: 80.4%
Second compound 1 µM, first compound 0.316 µM
  viability, T/C: 72.5%
Second compound 1 µM, first compound 1 µM
  viability, T/C: 72.4%
Second compound 1 µM, first compound 3.16 µM
  viability, T/C: 41.8%
Second compound 1 µM, first compound 10 µM
  viability, T/C: 0.2%
Second compound 3.16 µM, first compound 0.0316 µM
  viability, T/C: 62.4%
Second compound 3.16 µM, first compound 0.1 µM
  viability, T/C: 58.4%
Second compound 3.16 µM, first compound 0.316 µM
  viability, T/C: 56.4%
Second compound 3.16 µM, first compound 1 µM
  viability, T/C: 54.5%
Second compound 3.16 µM, first compound 3.16 µM
  viability, T/C: 23.1%
Second compound 3.16 µM, first compound 10 µM
  viability, T/C: 0.22%
Second compound 10 µM, first compound 0.0316 µM
  viability, T/C: 46.1%
Second compound 10 µM, first compound 0.1 µM
  viability, T/C: 47.7%
Second compound 10 µM, first compound 0.316 µM
  viability, T/C: 47.4%
Second compound 10 µM, first compound 1 µM
  viability, T/C: 41.7%
Second compound 10 µM, first compound 3.16 µM
  viability, T/C: 16.4%
Second compound 10 µM, first compound 10 µM
  viability, T/C: 0.26%

## CCN1C(C(=O)NC23CCC(C(=O)O)(CC2)CC3)C(c2cccc(Cl)c2F)C2(C(=O)Nc3cc(Cl)ccc32)C12CCCCC2 (centres undefined) + Cc1c(S(C)(=O)=O)c(-c2cc(F)cc(N3CCN(c4ccc(NS(=O)(=O)c5ccc(NC(CCN6CCC(C(=O)OCCCP(=O)(O)O)CC6)CSc6ccccc6)c(S(=O)(=O)C(F)(F)F)c5)cc4)CC3)c2)c(-c2ccc(Cl)cc2)n1C(C)C
Second compound 0.0316 µM
  IC50: > 3 µM
Second compound 0.1 µM
  IC50: > 3 µM
Second compound 0.316 µM
  IC50: > 3 µM
Second compound 1 µM
  IC50: > 3 µM
Second compound 3.16 µM
  IC50: 0.14 µM
Second compound 10 µM
  IC50: < 0.00949 µM
Second compound 0.0316 µM, first compound 0.00949 µM
  viability, T/C: 90.4%
Second compound 0.0316 µM, first compound 0.03 µM
  viability, T/C: 92.3%
Second compound 0.0316 µM, first compound 0.0949 µM
  viability, T/C: 89.3%
Second compound 0.0316 µM, first compound 0.3 µM
  viability, T/C: 76.5%
Second compound 0.0316 µM, first compound 0.949 µM
  viability, T/C: 70.2%
Second compound 0.0316 µM, first compound 3 µM
  viability, T/C: 61.8%
Second compound 0.1 µM, first compound 0.00949 µM
  viability, T/C: 88.9%
Second compound 0.1 µM, first compound 0.03 µM
  viability, T/C: 83.2%
Second compound 0.1 µM, first compound 0.0949 µM
  viability, T/C: 85.9%
Second compound 0.1 µM, first compound 0.3 µM
  viability, T/C: 73.3%
Second compound 0.1 µM, first compound 0.949 µM
  viability, T/C: 71.1%
Second compound 0.1 µM, first compound 3 µM
  viability, T/C: 60.8%
Second compound 0.316 µM, first compound 0.00949 µM
  viability, T/C: 80.6%
Second compound 0.316 µM, first compound 0.03 µM
  viability, T/C: 92.2%
Second compound 0.316 µM, first compound 0.0949 µM
  viability, T/C: 77.6%
Second compound 0.316 µM, first compound 0.3 µM
  viability, T/C: 71.4%
Second compound 0.316 µM, first compound 0.949 µM
  viability, T/C: 64.7%
Second compound 0.316 µM, first compound 3 µM
  viability, T/C: 57.2%
Second compound 1 µM, first compound 0.00949 µM
  viability, T/C: 70.1%
Second compound 1 µM, first compound 0.03 µM
  viability, T/C: 70.8%
Second compound 1 µM, first compound 0.0949 µM
  viability, T/C: 62.9%
Second compound 1 µM, first compound 0.3 µM
  viability, T/C: 58.4%
Second compound 1 µM, first compound 0.949 µM
  viability, T/C: 62%
Second compound 1 µM, first compound 3 µM
  viability, T/C: 51.2%
Second compound 3.16 µM, first compound 0.00949 µM
  viability, T/C: 55.8%
Second compound 3.16 µM, first compound 0.03 µM
  viability, T/C: 54.5%
Second compound 3.16 µM, first compound 0.0949 µM
  viability, T/C: 49.3%
Second compound 3.16 µM, first compound 0.3 µM
  viability, T/C: 48.2%
Second compound 3.16 µM, first compound 0.949 µM
  viability, T/C: 45.5%
Second compound 3.16 µM, first compound 3 µM
  viability, T/C: 39.4%
Second compound 10 µM, first compound 0.00949 µM
  viability, T/C: 46.7%
Second compound 10 µM, first compound 0.03 µM
  viability, T/C: 43.7%
Second compound 10 µM, first compound 0.0949 µM
  viability, T/C: 39.8%
Second compound 10 µM, first compound 0.3 µM
  viability, T/C: 34.8%
Second compound 10 µM, first compound 0.949 µM
  viability, T/C: 61.4%
Second compound 10 µM, first compound 3 µM
  viability, T/C: 34.5%
